# Test results as given in patent US20160031935A1, “SMALL MOLECULE MODULATORS OF PCSK9 AND METHODS OF USE THEREOF” (ADAERATA, LIMITED PARTNERSHIP, priority 2013, published 2016).
# Key:
# WT PCSK9(+V5) = target: T1, WT PCSK9(+V5) (Homo sapiens, UniProt Q8NBP7); experiment: PCSK9 secretion assay: PCSK9 in media and cells by ELISA (media/cell ratio); type: cell-based; settings: 10 μM; HepG2 cells stably expressing WT PCSK9(+V5), 24 h
# T1 construct: expressed in transfected cells
# Method: In 12-well plates (Greiner BioOne™), HepG2 cells stably expressing PCSK9(+V5) were seeded at a density of 1×10^6/well in complete media and incubated for 20 hours, at 37° C. Cells were rinsed once with 2 ml/well of D-PBS (+Calcium, +Magnesium) (Wisent) followed by addition of 0.5 ml/well incubation media (+0.07% BSA) containing the inhibitory compounds at various concentrations (11, 33, 100 μM) or DMSO control (0.4% final) and overnight (24 hours) incubation. 24 hours-conditioned media was collected, centrifuged at 130×g for 5 minutes to remove cell debris, and the supernatant removed for PCSK9 quantification by ELISA (100 μl of 1:30 dilution). Cells were washed once with ice-cold D-PBS (+Calcium, +Magnesium) (Wisent), then lysed with 250 ul/well of radioimmunoprecipitation assay buffer (RIPA) (50 mM Tris-HCl, pH 7.8, 150 mM NaCl, 1% Nonident P-40, 0.5% sodium deoxycholate, 0.1% SDS) containing a mixture of protease inhibitors (Roche Applied Science) for 30 min on ice, and pelleted at 11,300×g for 5 minutes. Supernatant was removed for cellular PCSK9 quantification by ELISA (100 μl of 1:20 dilution) and total protein determination by the Bio-Rad™ DC Protein assay (Bio-Rad) (4 μl cell lysate in duplicate) (Dubuc G, Tremblay M, Pare G, Jacques H, Hamelin J, Benjannet S, Boulet L, Genest J, Bernier L, Seidah N G, Davignon J. 2010. A new method for measurement of total plasma PCSK9: clinical applications. J Lipid Res. 51:140-149). The ratio of PCSK9 concentration of media (M) over cells (C) was determined and compounds which decreased M/C by >30% were considered active.
# HepG2 cells stably expressing WT PCSK9(+V5) were incubated overnight (24 hours) in the absence (DMSO) or presence of 10 μM, 100 μM or increasing concentrations (11, 33, 100 μM) of a tested compound. 24 hours-conditioned media was collected, centrifuged, and the supernatant removed for PCSK9 quantification by ELISA (100 μl of 1:30 dilution). Cells were lysed with 250 ul/well of radioimmunoprecipitation assay buffer (RIPA) (50 mM Tris-HCl, pH 7.8, 150 mM NaCl, 1% Nonident P-40, 0.5% sodium deoxycholate, 0.1% SDS) containing a mixture of protease inhibitors (Roche Applied Science), and pelleted at 11,300×g for 5 minutes. Supernatant was removed for cellular PCSK9 quantification by ELISA (100 μl of 1:20 dilution) and total protein determination by the Bio-Rad DC Protein assay (Bio-Rad) (Dubuc G, Tremblay M, Pare G, Jacques H, Hamelin J, Benjannet S, Boulet L, Genest J, Bernier L, Seidah N G, Davignon J. 2010. A new method for measurement of total plasma PCSK9: clinical applications. J Lipid Res. 51:140-149). Over 165 compounds were subjected to a first screen at 100 μM by PCSK9 secretion assay.
# [1] = tested on: cell surface LDLR activity; experiment: Dil-LDL uptake assay in HepG2 naïve cells; type: cell-based, human; settings: for activity at 10 µM: Homo sapiens, 24 h, HepG2 cells, read-out: Dil-LDL uptake (% DMSO Cnt)
# Method: HepG2 naive cells and HEK293 naive cells were plated in 96-well plates (CellBind black plate with clear bottom (Corning; Cat #3340)) at a density of 25,000 cells/well, in complete media (DMEM high glucose (+sodium pyruvate for HepG2) (Wisent)+10% FBS). After 20 hours, cells were washed for 30 min with serum free DMEM media (100 μl/well), the wash media was removed and replaced with 100 μl/well of incubation media (DMEM high glucose (+sodium pyruvate for HepG2) (Wisent)+0.07% BSA (Sigma-Aldrich)) containing compound at various concentrations ([…]) or DMSO control (0.4% final). Each condition was prepared in triplicates. After 6 hours incubation at 37° C., Dil-LDL (Biomedical Technologies (Cat #BT-904)) was added to the cell media (5 μl) at 5 μg/ml final concentration, and cells returned to tissue culture incubator for another 18 hours (a total of 24 hours incubation with the compounds). After 2 washes (200 μl/well) with ice-cold D-PBS (Wisent) and aspiration of the final wash, plates were scanned (bottom read) on a SpectraMax GeminiEM™ plate reader (Molecular Devices). For each well, raw Dil-LDL uptake was measured as the average fluorescence intensity (RFU) (ex: 520 nm/em: 575 nm, cutoff: 550 nm) of 9 readings in 3 different points in the well. Dil-LDL uptake in each well was corrected for total number of cells by performing a CyQuant™ cell assay (Invitrogen; Cat #C7026). Namely, after recording the Dil fluorescence, the plate was frozen overnight at −80° C. The next day, the plates were thawed at room temperature, the cells lysed according to the manufacturer's protocol, and the number of cells/well was determined by measuring the fluorescence (RFU) of the CyQuant green fluorescent dye bound to the cellular nucleic acids (ex: 485 nm/em: 538 nm, cutoff: 515 nm). For each condition, Dil-RFU was divided by CyQuant-RFU. Corrected dil-LDL uptake is reported as % DMSO control and was obtained from triplicate wells.
# The PCSK9 inhibitory compounds were also characterized using a Dil-LDL fluorescent uptake assay as described in Poirier et al., J. Biol. Chem. 284: 28856-28864, 2009. The method entails the fluorescence measurement of the Dil-LDL cellular incorporation via LDLR internalization (a measurement of cell surface LDLR activity) in human hepatocyte derived HuH7 or HepG2 cell lines, or human embryonic HEK293 cells, in the presence or absence of compounds.
# HepG2 naïve cells and HEK293 naïve cells were plated in 96-well plates (CellBind™ black plate with clear bottom (Corning; Cat #3340)). At 20 h post-seeding, cells were incubated in the absence (DMSO or negative control) or in the presence of different concentrations of compounds. Each condition was prepared in triplicates. After 6 hours incubation, Dil-LDL (Biomedical Technologies (Cat #BT-904)) was added to the cell media, and cells returned to tissue culture incubator for another 18 hours. Plates were scanned (bottom read) on a SpectraMax GeminiEM™ plate reader (Molecular Devices). For each well, raw Dil-LDL uptake was measured as the average fluorescence intensity (RFU) (ex: 520 nm/em: 575 nm, cutoff: 550 nm) of 9 readings in 3 different points in the well. Dil-LDL uptake in each well was corrected for total number of cells by performing a CyQuant™ cell assay (Invitrogen, Cat #C7026) according to the manufacturer's instructions. Corrected Dil-LDL uptake is reported as a % of DMSO control and was obtained from triplicate wells.
# T1 sequence (Q8NBP7 153-692): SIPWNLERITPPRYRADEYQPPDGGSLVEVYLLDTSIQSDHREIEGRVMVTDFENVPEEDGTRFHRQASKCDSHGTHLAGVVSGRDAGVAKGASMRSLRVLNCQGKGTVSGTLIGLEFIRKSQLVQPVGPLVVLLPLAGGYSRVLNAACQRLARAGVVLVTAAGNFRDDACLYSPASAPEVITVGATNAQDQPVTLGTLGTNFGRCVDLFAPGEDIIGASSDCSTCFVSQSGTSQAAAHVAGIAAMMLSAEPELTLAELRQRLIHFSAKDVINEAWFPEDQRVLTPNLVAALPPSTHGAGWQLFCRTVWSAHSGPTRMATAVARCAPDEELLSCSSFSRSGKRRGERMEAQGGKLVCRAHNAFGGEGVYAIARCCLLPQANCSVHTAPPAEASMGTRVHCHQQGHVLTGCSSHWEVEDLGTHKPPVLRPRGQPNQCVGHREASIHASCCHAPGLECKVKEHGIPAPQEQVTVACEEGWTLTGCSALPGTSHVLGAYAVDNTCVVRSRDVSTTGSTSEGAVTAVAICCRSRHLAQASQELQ
SMILES,Secretion Inhibition (% Activity) (WT PCSK9(+V5)) [%],activity at 10 µM [1] [%],"Dil-LDL uptake (FIG. 5A, in words) ([1]; 33.3 μM, HepG2 naïve cells)"
"CC(C)[C@H](NC(=O)c1ccc(C2(C(F)(F)F)N=N2)cc1)C(=O)N[C@@H](Cc1ccccc1)C(=O)N[C@@H](C)C(=O)NC(CCC(N)=O)C(O)C(F)(F)F (stereo partly drawn) [Example 29, N-((2S)-1-(((2S)-1-(((2S)-1-((6-Amino-1,1,1-trifluoro-2-hydroxy-6-oxohexan-3-yl)amino)-1-oxopropan-2-yl)amino)-1-oxo-3-phenylpropan-2-yl)amino)-3-methyl-1-oxobutan-2-yl)-4-(3-(trifluoromethyl)-3H-diazirin-3-yl)benzamide]",83,207 ± 21,
"CC(C)[C@H](NC(=O)c1ccc(-c2ccccc2)cc1)C(=O)N[C@@H](Cc1ccccc1)C(=O)N[C@@H](C)C(=O)NC(CCC(N)=O)C(O)C(F)(F)F (stereo partly drawn) [Example 24, N-((2S)-1-(((2S)-1-(((2S)-1-((6-Amino-1,1,1-trifluoro-2-hydroxy-6-oxohexan-3-yl)amino)-1-oxopropan-2-yl)amino)-1-oxo-3-phenylpropan-2-yl)amino)-3-methyl-1-oxobutan-2-yl)-[1,1′-biphenyl]-4-carboxamide]",88,224 ± 33,increase in the Dil-LDL uptake
"CC(C)[C@H](NC(=O)c1ccc(-c2ccccc2)cc1)C(=O)N[C@@H](Cc1ccccc1)C(=O)NC1(C(=O)N[C@@H](CCC(N)=O)C(O)C(F)(F)F)CCC1 (single isomer, unassigned) [Example 66]",92,237 ± 59,
"CSCC[C@H](NC(=O)c1ccc(-c2ccccc2)cc1)C(=O)N[C@@H](Cc1ccccc1)C(=O)N[C@@H](C)C(=O)NC(CCC(N)=O)C(O)C(F)(F)F (stereo partly drawn) [Example 75, N-((5S,8S,11S)-17-amino-8-benzyl-11-methyl-6,9,12,17-tetraoxo-14-(2,2,2-trifluoro-1-hydroxyethyl)-2-thia-7,10,13-triazaheptadecan-5-yl)-[1,1′-biphenyl]-4-carboxamide]",100,172 ± 48,
"CCCCCCCCCC(=O)N[C@H](C(=O)N[C@@H](Cc1ccccc1)C(=O)N[C@H](C(=O)NC(CCC(N)=O)C(O)C(F)(F)F)C(C)C)C(C)C (stereo partly drawn) [Example 58, N-((2S)-1-(((2S)-1-(((2S)-1-((6-amino-1,1,1-trifluoro-2-hydroxy-6-oxohexan-3-yl)amino)-3-methyl-1-oxobutan-2-yl)amino)-1-oxo-3-phenylpropan-2-yl)amino)-3-methyl-1-oxobutan-2-yl)decanamide]",81,261 ± 48,
"CCCCCCCCCC(=O)N[C@H](C(=O)N[C@@H](Cc1ccccc1)C(=O)N[C@H](C)C(=O)N[C@@H](CCC(N)=O)C(O)C(F)(F)F)C(C)C (single isomer, unassigned) [Example 60]",73,224 ± 43,
"CCCCCCCCCC(=O)N[C@H](C(=O)N[C@@H](Cc1ccccc1)C(=O)N[C@@H](Cc1ccccc1)C(=O)NC(CCC(N)=O)C(O)C(F)(F)F)C(C)C (stereo partly drawn) [Example 59, N-((2S)-1-(((2S)-1-(((2S)-1-((6-Amino-1,1,1-trifluoro-2-hydroxy-6-oxohexan-3-yl)amino)-1-oxo-3-phenylpropan-2-yl)amino)-1-oxo-3-phenylpropan-2-yl)amino)-3-methyl-1-oxobutan-2-yl)decanamide]",82,253 ± 75,
"CC(C)[C@H](NC(=O)c1ccc(-c2ccccc2)cc1)C(=O)N[C@H](Cc1ccccc1)C(=O)N[C@@H](C)C(=O)NC(CCC(N)=O)C(O)C(F)(F)F (stereo partly drawn) [Example 70, N-((2S)-1-(((2R)-1-(((2S)-1-((6-Amino-1,1,1-trifluoro-2-hydroxy-6-oxohexan-3-yl)amino)-1-oxopropan-2-yl)amino)-1-oxo-3-phenylpropan-2-yl)amino)-3-methyl-1-oxobutan-2-yl)-[1,1′-biphenyl]-4-carboxamide]",74,224 ± 47,
"CC(C)[C@H](NC(=O)c1ccc(-c2ccc(F)cc2)cc1)C(=O)N[C@@H](Cc1ccccc1)C(=O)N[C@@H](C)C(=O)NC(CCC(N)=O)C(O)C(F)(F)F (stereo partly drawn) [Example 52, N-((2S)-1-(((2S)-1-(((2S)-1-((6-Amino-1,1,1-trifluoro-2-hydroxy-6-oxohexan-3-yl)amino)-1-oxopropan-2-yl)amino)-1-oxo-3-phenylpropan-2-yl)amino)-3-methyl-1-oxobutan-2-yl)-4′-fluoro-[1,1′-biphenyl]-4-carboxamide]",79,254 ± 71,
